Experiments:
[1] = tested on: HT22 neuronal cells; experiment: Toxicity of pigment alone on HT22 neuronal cells (MTS cell viability); format: cell-based, mouse; conditions: 50 μM pigment, no glutamate; FIG. 1 white rectangles
[2] = tested on: HT22 neuronal cells; conditions: for effect on cell death of HT22 neuronal cells induced by glutamate: glutamate at 10 mM, FIG. 1
Protocol: The HT22 neuronal cells (mouse hippocampus neuronal line) were treated for two hours with 50 μM of pigment, followed or not by the addition of 10 mM glutamate for 24 hours at 37° C. Cell viability (in %) was measured by an MTS test (by means of a CellTiter 96®Aqueous non-Radioactive Cell Proliferation Assay kit from Promega).
The HT22 cells were treated for 2 hours either with diadinoxanthin (FIG. 2) or violaxanthin (FIG. 3) or diatoxanthin (comparative test shown in FIG. 4) at different concentrations. For each of the concentrations, cell death was then induced by glutamate (10 mM) for 24 hours at 37° C. Cell viability (in %) was measured by an MTS test. The values shown are the mean±standard deviation (n=3).
The EC50 (half maximal effective concentration) is the concentration at which a molecule induces a response halfway between the baseline and the maximum effect after a certain exposure time thereof. This determines its efficacy.

Row | SMILES | toxicity of pigment alone (cell viability) [1] | effect on cell death of HT22 neuronal cells induced by glutamate [2] | EC50 ([2]; read-out: EC50 (half maximal effective concentration), dose-response, 2 hours pre-treatment, then glutamate 10 mM for 24 hours at 37° C., FIG. 2, FIG. 3) [µM]
1 | CC1=C(C#C/C(C)=C/C=C/C(C)=C/C=C/C=C(C)/C=C/C=C(C)/C=C/[C@@]23O[C@]2(C)C[C@@H](O)CC3(C)C)C(C)(C)C[C@H](O)C1 [diadinoxanthin] | non-toxic | protective effect | 22
2 | CC(/C=C/C=C(C)/C=C/[C@@]12O[C@]1(C)C[C@@H](O)CC2(C)C)=C\C=C\C=C(C)\C=C\C=C(C)\C=C\[C@@]12O[C@]1(C)C[C@@H](O)CC2(C)C [violaxanthin] | non-toxic | protective effect | 

Source: patent publication US12491175B2, “Composition containing carotenoids and use thereof for protecting neurons against neurodegeneration” (priority 2019, dated 2025)
